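These data come from cells grown in 96-well plates and exposed to compound for 48 hours at five concentrations. GI50 marks 50% less growth. TGI denotes the concentration required for complete inhibition of growth.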
Columns and labels:
Assay in all cases: NCI tumour cell line growth inhibition, 48 h; in the data active means GI50 below about 0.43 µM; inactive means the rest
786-0 renal = test system: 786-0 renal
A549 NSCLC = test system: A549 NSCLC
DU-145 prostate = test system: DU-145 prostate
HT29 colon = test system: HT29 colon
KM12 colon = test system: KM12 colon
MCF7 breast = test system: MCF7 breast
OVCAR-8 ovarian = test system: OVCAR-8 ovarian
RPMI-8226 leukemia = test system: RPMI-8226 leukemia
SNB-75 CNS = test system: SNB-75 CNS
HCC-2998 colon = test system: HCC-2998 colon

CCCCN1CSC(=S)N(Cc2ccccc2)C1
> 100 µM: TGI (786-0 renal) | TGI (A549 NSCLC) | TGI (DU-145 prostate) | TGI (HT29 colon) | TGI (KM12 colon) | TGI (MCF7 breast) | TGI (OVCAR-8 ovarian) | TGI (SNB-75 CNS)
59 µM: TGI (RPMI-8226 leukemia)

C/C=C1/C(=C/c2[nH]c(/C=c3\[nH]/c(=C/C4=NC(=O)C(CC)=C4C)c(C)c3CCC(=O)O)c(CCC(=O)O)c2C)NC(=O)C1C (configuration not stated)
inactive: GI50 (786-0 renal) > 150 µg/mL | GI50 (A549 NSCLC) > 150 µg/mL | GI50 (HCC-2998 colon) > 150 µg/mL | GI50 (OVCAR-8 ovarian) > 150 µg/mL | GI50 (RPMI-8226 leukemia) > 150 µg/mL | GI50 (SNB-75 CNS) > 150 µg/mL
> 150 µg/mL: TGI (786-0 renal) | TGI (A549 NSCLC) | TGI (HCC-2998 colon) | TGI (OVCAR-8 ovarian) | TGI (RPMI-8226 leukemia) | TGI (SNB-75 CNS)

COC(C(O)c1ccc2c(c1)OCO2)P(=O)(c1ccccc1)c1ccccc1 (configuration not stated)
> 100 µM: TGI (786-0 renal) | TGI (HT29 colon) | TGI (KM12 colon) | TGI (OVCAR-8 ovarian) | TGI (SNB-75 CNS)

COc1ccc(CNc2nc3cc(C(F)(F)F)ccc3nc2C)cc1OC
61.4 µM: TGI (SNB-75 CNS)
> 100 µM: TGI (A549 NSCLC) | TGI (HT29 colon) | TGI (OVCAR-8 ovarian)
58.9 µM: TGI (786-0 renal) | TGI (HCC-2998 colon)
97 µM: TGI (RPMI-8226 leukemia)
83 µM: TGI (KM12 colon)

Cc1ccc(-c2cc(=O)c3cc(C)c(C)c(C(=O)O)c3o2)cc1C
> 100 µM: TGI (786-0 renal) | TGI (A549 NSCLC) | TGI (HCC-2998 colon) | TGI (HT29 colon) | TGI (KM12 colon) | TGI (OVCAR-8 ovarian) | TGI (RPMI-8226 leukemia) | TGI (SNB-75 CNS)

O=C(Nc1ccc(Cl)cc1Cl)C(=O)C(C(=O)c1ccncc1)C1OC(=O)c2ccccc21 (configuration not stated)
> 100 µM: TGI (786-0 renal) | TGI (A549 NSCLC) | TGI (HCC-2998 colon) | TGI (HT29 colon) | TGI (KM12 colon) | TGI (OVCAR-8 ovarian) | TGI (RPMI-8226 leukemia) | TGI (SNB-75 CNS)

CC(=O)O.[Au].c1ccc([PH+](c2ccccc2)c2ccccc2)cc1
66.1 µM: TGI (A549 NSCLC)
26.3 µM: TGI (OVCAR-8 ovarian)
4.46 µM: TGI (RPMI-8226 leukemia)
20.5 µM: TGI (SNB-75 CNS)
inactive: GI50 (786-0 renal) 1.67 µM | GI50 (A549 NSCLC) 18.8 µM | GI50 (HCC-2998 colon) 7 µM | GI50 (HT29 colon) 11.5 µM | GI50 (KM12 colon) 11.7 µM | GI50 (OVCAR-8 ovarian) 5.45 µM | GI50 (RPMI-8226 leukemia) 1.32 µM | GI50 (SNB-75 CNS) 8.1 µM
39.8 µM: TGI (KM12 colon)
32.5 µM: TGI (HT29 colon)
3.27 µM: TGI (786-0 renal)
15.2 µM: TGI (HCC-2998 colon)

COC1=CC2(C=CC1=O)c1cc(OC)c(OC)cc1CCN2C(=O)c1ccccc1 (configuration not stated)
> 100 µM: TGI (786-0 renal) | TGI (A549 NSCLC) | TGI (HCC-2998 colon) | TGI (HT29 colon) | TGI (KM12 colon) | TGI (OVCAR-8 ovarian) | TGI (RPMI-8226 leukemia) | TGI (SNB-75 CNS)

COC(=O)c1cc(C)c(C)c2c1NC(=O)CNC2=O
> 100 µM: TGI (786-0 renal) | TGI (A549 NSCLC) | TGI (HCC-2998 colon) | TGI (HT29 colon) | TGI (KM12 colon) | TGI (OVCAR-8 ovarian) | TGI (RPMI-8226 leukemia) | TGI (SNB-75 CNS)

N#CCc1ccc(C(C#N)/C(CCCC(=O)Nc2cccc([N+](=O)[O-])c2)=N/NC(N)=S)cc1 (configuration not stated)
> 100 µM: TGI (786-0 renal) | TGI (A549 NSCLC) | TGI (HCC-2998 colon) | TGI (HT29 colon) | TGI (KM12 colon) | TGI (RPMI-8226 leukemia) | TGI (SNB-75 CNS)

CC(=O)N1C/C(=C\c2ccc(N(C)C)cc2)C(=O)/C(=C/c2ccc(N(C)C)cc2)C1
> 100 µM: TGI (786-0 renal) | TGI (A549 NSCLC) | TGI (HCC-2998 colon) | TGI (HT29 colon) | TGI (KM12 colon) | TGI (OVCAR-8 ovarian) | TGI (RPMI-8226 leukemia)
49.4 µM: TGI (SNB-75 CNS)

— PubChem BioAssay (NCI)
